Measurements taken from patent publication US10568879B2 (GALAPAGOS NV, priority 2015, dated 2020).

Molecular target: T1, GPR84 (Homo sapiens, UniProt Q9NQS5)
T1 construct: expressed in transfected cells
Assay: GPR84 [35S]GTPγS binding assay
Format: biochemical
Details: 3,3′-diindolylmethane at EC80; membranes from stable cell line over expressing GPR84
Method: The following assay can be used for determination of GPR84 activation. The [^35S]GTPγS binding assay measures the level of G protein activation following agonist occupation of a GPCR, by determining the binding of the non-hydrolysable analog [^35S]GTPγS to Gα subunits.
The assay is performed in a 96-well plate where the following reagents are added. First 50 μL compound is added into the assay plate, followed by addition of 20 μL 3,3′-diindolylmethane at EC80 concentration (concentration which gives 80% of the activity of GPR84). Then, 30 μL of a mixture consisting of membranes-GTPγS-SpA beads is added [mixture consists of 20 μg/well membranes derived from stable cell line over expressing GPR84 (membranes are pre-incubated with 0.1 μM GDP for 15 min at 4° C.), 0.1 nM [^35S]GTPγS (Perkin Elmer, NEG030) and 0.5 mg/well PVT-WGA SpA beads (Perkin Elmer, RPNQ0001)]. All components are diluted in assay buffer containing 20 mM Tris pH 7.5; 5 mM MgCl2; 250 mM NaCl; 0.05% BSA; 75 μg/mL saponin. After an incubation of 90 min at room temperature, 20 μL CsCl2 0.8 M (MP Biomedicals, 02150589) is added, followed by centrifugation at 2000 rpm during 20 min. Plates are read on a topcount reader (perkin elmer) immediately after centrifugation (readout time, 1 min/well).

T1 sequence (Q9NQS5 whole entry): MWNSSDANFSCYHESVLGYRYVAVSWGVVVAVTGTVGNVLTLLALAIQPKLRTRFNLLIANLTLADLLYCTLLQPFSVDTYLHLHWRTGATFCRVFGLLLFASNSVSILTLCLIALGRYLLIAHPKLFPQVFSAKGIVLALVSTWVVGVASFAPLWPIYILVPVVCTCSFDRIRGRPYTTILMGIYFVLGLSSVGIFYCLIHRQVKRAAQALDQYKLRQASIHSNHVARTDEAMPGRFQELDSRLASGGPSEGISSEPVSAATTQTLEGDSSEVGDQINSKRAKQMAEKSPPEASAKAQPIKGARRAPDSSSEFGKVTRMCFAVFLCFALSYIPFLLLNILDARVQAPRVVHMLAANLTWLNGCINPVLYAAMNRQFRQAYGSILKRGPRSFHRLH

An IC50 greater than 1000 nM was found for `COc1cc2c(cc1OC)-c1c(C)c(=O)cc(NCC3CCCO3)n1CC2` (stereo not drawn) [Compound 2, 9,10-dimethoxy-1-methyl-4-(tetrahydrofuran-2-ylmethylamino)-6,7-dihydrobenzo[a]quinolizin-2-one] in this work.

An IC50 greater than 1000 nM was found for `CCc1c2n(c(NCC3CCCO3)cc1=O)CCc1cc(O)ccc1-2` (stereo not drawn) [Compound 3, 1-ethyl-9-hydroxy-4-(tetrahydrofuran-2-ylmethylamino)-6,7-dihydrobenzo[a]quinolizin-2-one] in this work.

An IC50 greater than 1000 nM was found for `COc1cc2c(cc1OC)-c1cc(=O)cc(NCC3COCCO3)n1CC2` (stereo not drawn) [Compound 5, 4-[([1,4]Dioxan-2-ylmethyl)-amino]-9,10-dimethoxy-6,7-dihydro-pyrido[2,1-a]isoquinolin-2-one] in this work.

An IC50 of 0.01 to 100 nM was found for `Cc1c2n(c(OCC3CCCO3)cc1=O)CCc1cc(OCC3CCCOC3)ccc1-2` (stereo not drawn) [Compound 47, 1-methyl-4-(tetrahydrofuran-2-ylmethoxy)-9-(tetrahydropyran-3-ylmethoxy)-6,7-dihydrobenzo[a]quinolizin-2-one] in this work.

An IC50 greater than 1000 nM was found for `Cc1c2n(c(OCC3CCCO3)cc1=O)CCc1cc(OCCN(C)C)ccc1-2` (stereo not drawn) [Compound 53, 9-(2-dimethylaminoethyloxy)-1-methyl-4-(tetrahydrofuran-2-ylmethoxy)-6,7-dihydrobenzo[a]quinolizin-2-one] in this work.

An IC50 of 500 to 1000 nM was found for `Cc1c2n(c(OCC3CCCCO3)cc1=O)CCc1cc(OCCN(C)C)ccc1-2` (stereo not drawn) [Compound 54, 9-(2-dimethylaminoethyloxy)-1-methyl-4-(tetrahydropyran-2-ylmethoxy)-6,7-dihydrobenzo[a]quinolizin-2-one] in this work.

An IC50 of 500 to 1000 nM was found for `Cc1c2n(c(OC[C@@H]3COCCO3)cc1=O)CCc1cc(OCCN(C)C)ccc1-2` [Compound 55, 9-(2-dimethylaminoethyloxy)-4-[[(2S)-1,4-dioxan-2-yl]methoxy]-1-methyl-6,7-dihydrobenzo[a]quinolizin-2-one] in this work.

An IC50 of 100 to 500 nM was found for `Cc1c2n(c(OC[C@@H]3COCCO3)cc1=O)CCc1cc(OS(C)(=O)=O)ccc1-2` [Compound 56, [4-[[(2S)-1,4-dioxan-2-yl]methoxy]-1-methyl-2-oxo-6,7-dihydrobenzo[a]quinolizin-9-yl] methanesulfonate] in this work.

An IC50 of 0.01 to 100 nM was found for `Cc1c2n(c(OC[C@@H]3CCCO3)cc1=O)CCc1cc(OCc3ccccn3)ccc1-2` [Compound 57, 1-methyl-9-(2-pyridylmethoxy)-4-[[(2S)-tetrahydrofuran-2-yl]methoxy]-6,7-dihydrobenzo[a]quinolizin-2-one] in this work.

An IC50 of 0.01 to 100 nM was found for `Cc1c2n(c(OC[C@@H]3COCCO3)cc1=O)CCc1cc(OC(F)F)ccc1-2` [Compound 59, 9-(difluoromethoxy)-4-[[(2S)-1,4-dioxan-2-yl]methoxy]-1-methyl-6,7-dihydrobenzo[a]quinolizin-2-one] in this work.

An IC50 of 0.01 to 100 nM was found for `Cc1c2n(c(OC[C@@H]3COCCO3)cc1=O)CCc1cc(OC[C@@H]3COCCO3)ccc1-2` [Compound 62, 4,9-bis[[(2S)-1,4-dioxan-2-yl]methoxy]-1-methyl-6,7-dihydrobenzo[a]quinolizin-2-one] in this work.

An IC50 of 0.01 to 100 nM was found for `Cc1c2n(c(OC[C@@H]3COCCO3)cc1=O)CCc1cc(Sc3ccccc3)ccc1-2` [Compound 64, 4-[[(2S)-1,4-dioxan-2-yl]methoxy]-1-methyl-9-phenylsulfanyl-6,7-dihydrobenzo[a]quinolizin-2-one] in this work.

An IC50 greater than 1000 nM was found for `Cc1c2n(c(OC[C@@H]3COCCO3)cc1=O)CCc1cc(N3CCNCC3)ccc1-2` [Compound 66, 4-[[(2S)-1,4-dioxan-2-yl]methoxy]-1-methyl-9-piperazin-1-yl-6,7-dihydrobenzo[a]quinolizin-2-one] in this work.

An IC50 of 100 to 500 nM was found for `Cc1c2n(c(OC[C@@H]3COCCO3)cc1=O)CCc1cc(S(=O)(=O)c3ccccc3)ccc1-2` [Compound 67, 9-(benzenesulfonyl)-4-[[(2S)-1,4-dioxan-2-yl]methoxy]-1-methyl-6,7-dihydrobenzo[a]quinolizin-2-one] in this work.

An IC50 of 0.01 to 100 nM was found for `Cc1c2n(c(OC[C@@H]3COCCO3)cc1=O)CCc1cc(N3CCN(S(C)(=O)=O)CC3)ccc1-2` [Compound 68] in this work.
